Reference: PMC8205226, “HIV-1 Integrase Inhibitors with Modifications That Affect Their Potencies against Drug Resistant Integrase Mutants” (ACS Infectious Diseases, 2021)
Like-named read-outs stand apart in the source and are kept apart here.

Legend:
[1] = tested on: HIV-1 IN mutant S119R; experiment: single-round infectivity assay, S119R IN mutant; type: cell-based
Method: (§1) The EC50 values were determined using a vector that carries the IN mutant in a single round infection assay. […] Error bars represent the standard deviations of independent experiments, n = 4, performed in triplicate.
(§2) WT and mutant HIV-1 viral vectors were used in single-round infectivity assays to determine the antiviral potencies (EC50 values) of the compounds and the effects of the mutants on the EC50 values as previously described.[30],[54] Single round infectivity measurements were determined as done previously.[38]
(§3) The vector pNLNgoMIVR-ΔENV.LUC has been described previously.[26] To produce the new IN mutants used in this study, the IN open reading frame was removed from pNLNgoMIVR-ΔENV.LUC by digestion with KpnI and SalI, and the resulting fragment was inserted between the KpnI and SalI sites of pBluescript KS+. Using that construct as the wild-type template, we prepared the following HIV-1 IN mutants using the QuikChange II XL site directed mutagenesis kit (Agilent Technologies, Santa Clara, CA) protocol: N117A, N117H, P142A, P142H, P142S, Y143C, Y143H, S230R, R231G, and R231K. The following sense oligonucleotides were used with matching cognate antisense oligonucleotides (not shown) (Integrated DNA Technologies, Coralville, IA) in the mutagenesis: N117A, 5′-[…]-3′; N117H, 5′-[…]-3′; P142A, 5′-[…]-3′; P142H, 5′-[…]-3′; P142S, 5′-[…]-3′; Y143C, 5′- […]-3′; Y143H, 5′-[…]-3′; S230R, 5′- […]-3′; R231G, 5′-[…]-3′; R231K, 5′-[…]-3′.

[2] = tested on: HIV-1 IN mutant P142H; experiment: single-round infectivity assay, P142H IN mutant; type: cell-based
Method: as §1
Single round infectivity measurements were determined as done previously.[38]
as §3

[3] = tested on: HIV-1 IN mutant Y143H; experiment: single-round infectivity assay, Y143H IN mutant; type: cell-based
Method: (§4) Figure 4 Mutations in the β5-α3 loop affect the antiviral potencies of the new compounds. The EC50 values were determined using a vector that carries the IN mutant in a single round infection assay. […] Error bars represent the standard deviations of independent experiments, n = 4, performed in triplicate.
as §2, §3

[4] = tested on: HIV-1 IN mutant Y143C; experiment: single-round infectivity assay, Y143C IN mutant; type: cell-based
Method: as §4, §2, §3

[5] = tested on: HIV-1 IN mutant P142A; experiment: single-round infectivity assay, P142A IN mutant; type: cell-based
Method: as §4, §2, §3

[6] = tested on: WT HIV-1; conditions: vector carrying WT HIV-1 IN, single round infection; previously reported; cited from earlier work
[7] = tested on: HIV-1 IN mutant R231G; experiment: single-round infectivity assay, R231G IN mutant; type: cell-based
Method: (§5) Figure 5 Antiviral potencies of the new compounds against IN with mutations in the […]. The EC50 values were determined using a vector that carries the IN mutant in a single round infection assay. […] Error bars represent the standard deviations of independent experiments, n = 4, performed in triplicate.
as §2, §3

[8] = tested on: HIV-1 IN mutant G118R; experiment: single-round infectivity assay, G118R IN mutant; type: cell-based
Method: as §1, §2, §3

[9] = tested on: HIV-1 IN double mutant G140S/Q148H; conditions: single round infection; previously reported; cited from earlier work
[10] = tested on: HIV-1 IN mutant N117A; experiment: single-round infectivity assay, N117A IN mutant; type: cell-based
Method: as §1, §2, §3

[11] = tested on: HIV-1 IN mutant N155H; experiment: single-round infectivity assay, N155H IN mutant; type: cell-based; conditions: EC50 compound / EC50 DTG
Method: (§6) Figure 2 Antiviral activities of the new compounds against RAL-resistant mutants. The EC50 values were determined using a vector that carries WT HIV-1 IN and the RAL-resistant mutants in a single round infection assay. […] Error bars represent the standard deviations of independent experiments, n = 4, performed in triplicate. The graph has a maximum value of 550 nM.
as §2, §3

[12] = tested on: HIV-1 IN mutant Y143R; experiment: single-round infectivity assay, Y143R IN mutant; type: cell-based; conditions: EC50 compound / EC50 DTG
Method: as §6, §2, §3

[13] = tested on: HIV-1 IN mutant R231K; experiment: single-round infectivity assay, R231K IN mutant; type: cell-based
Method: as §5, §2, §3

[14] = tested on: HIV-1 IN mutant S230R; experiment: single-round infectivity assay, S230R IN mutant; type: cell-based
Method: as §5, §2, §3

[15] = tested on: HIV-1 IN mutant N117H; experiment: single-round infectivity assay, N117H IN mutant; type: cell-based
Method: as §1, §2, §3

[16] = tested on: HIV-1 IN mutant G118R; conditions: single round infection; previously shown; cited from earlier work
[17] = tested on: HIV-1 IN double mutant G140S/Q148H; experiment: single-round infectivity assay, G140S/Q148H IN double mutant; type: cell-based; conditions: EC50 compound / EC50 DTG
Method: as §6, §2, §3

[18] = tested on: HIV-1 IN mutant P142S; experiment: single-round infectivity assay, P142S IN mutant; type: cell-based
Method: as §4, §2, §3

[19] = fold change in EC50, IN mutant versus WT HIV-1

SMILES: Nc1c(C(=O)NCc2ccc(F)cc2F)c(=O)n(O)c2ncc(CCS(=O)(=O)c3ccccc3)cc12 [4f]
- ratio of the EC50s (our compound relative to DTG) against S119R ([1]; EC50 compound / EC50 DTG): 1.1
- EC50 ([1]; Human immunodeficiency virus 1, read-out: EC50 values S119R): 2.6 ± 0.4 nM
- FC S119R [1, 19]: 1.3
- ratio of the EC50s (our compound relative to DTG) against P142H ([2]; EC50 compound / EC50 DTG): 0.6
- EC50 ([2]; Human immunodeficiency virus 1, read-out: EC50 values P142H): 1.7 ± 0.2 nM
- FC P142H [2, 19]: 0.9
- ratio of the EC50s (our compound relative to DTG) against Y143H ([3]; EC50 compound / EC50 DTG): 1.0
- EC50 ([3]; Human immunodeficiency virus 1, read-out: EC50 values Y143H, single round infection, n = 4): 2.3 ± 0.1 nM
- FC Y143H [3, 19]: 1.2
- EC50 ([3]; read-out: EC50 values Y143H, single round infection, n = 4): < 3 nM
- ratio of the EC50s (our compound relative to DTG) against Y143C ([4]; EC50 compound / EC50 DTG): 1.2
- EC50 ([4]; Human immunodeficiency virus 1, read-out: EC50 values Y143C, single round infection, n = 4): 1.7 ± 0.4 nM
- FC Y143C [4, 19]: 0.9
- EC50 ([4]; read-out: EC50 values Y143C, single round infection, n = 4): < 3 nM
- ratio of the EC50s (our compound relative to DTG) against P142A ([5]; EC50 compound / EC50 DTG): 1.1
- EC50 ([5]; Human immunodeficiency virus 1, read-out: EC50 values P142A): 2.8 ± 0.1 nM
- FC P142A [5, 19]: 1.4
- EC50 [6]: 2 ± 0.1 nM
- ratio of the EC50s (our compound relative to DTG) against R231G ([7]; EC50 compound / EC50 DTG): 1.4
- EC50 ([7]; Human immunodeficiency virus 1, read-out: EC50 values R231G): 2 ± 0.2 nM
- FC R231G [7, 19]: 1.0
- ratio of the EC50s (our compound relative to DTG) against G118R ([8]; EC50 compound / EC50 DTG): 0.9
- FC G118R [8, 19]: 5.7
- EC50 [9]: 5.2 ± 0.3 nM
- EC50 ([10]; Human immunodeficiency virus 1, read-out: EC50 values N117A): 0.8 nM
- FC N117A [10, 19]: 0.4
- ratio of the EC50s (our compound relative to DTG) against N155H [11]: 0.6
- ratio of the EC50s (our compound relative to DTG) against Y143R [12]: 0.1
- ratio of the EC50s (our compound relative to DTG) against R231K ([13]; EC50 compound / EC50 DTG): 0.8
- EC50 ([13]; Human immunodeficiency virus 1, read-out: EC50 values R231K, single round infection, n = 4): 3.3 ± 0.2 nM
- EC50 ([13]; read-out: EC50 values R231K, single round infection, n = 4): < 5 nM
- ratio of the EC50s (our compound relative to DTG) against S230R ([14]; EC50 compound / EC50 DTG): 1.0
- EC50 ([14]; Human immunodeficiency virus 1, read-out: EC50 values S230R): 4.8 ± 0.3 nM
- FC S230R [14, 19]: 2.4
- ratio of the EC50s (our compound relative to DTG) against N117H ([15]; EC50 compound / EC50 DTG): 1.1
- EC50 ([15]; Human immunodeficiency virus 1, read-out: EC50 values N117H): 2.7 nM
- FC N117H [15, 19]: 1.4
- EC50 [16]: 11.4 ± 3.5 nM
- ratio of the EC50s (our compound relative to DTG) against G140S/Q148H [17]: 0.9
- ratio of the EC50s (our compound relative to DTG) against P142S ([18]; EC50 compound / EC50 DTG): 0.7
- EC50 ([18]; Human immunodeficiency virus 1, read-out: EC50 values P142S): 1.5 ± 0.3 nM
- FC P142S [18, 19]: 0.8
